# Experimental data published in patent US10835542B2, “9-aminomethyl minocycline compounds and use thereof in treating community-acquired bacterial pneumonia (CABP)” (Paratek Pharmaceuticals, Inc., priority 2016, dated 2020).
# “And” between values parts separate entries of the source, which are not always exact repeats. Equal values may be shown once.
# How the values were obtained:
# Klebsiella pneumoniae = assay: Clinical success at PTE by baseline pathogen, microITT; type: in vivo, human; details: N1 = 13 (Compound 1), 13 (Moxifloxacin)
# [1] = Safety assessments in the multiple iv dose BAL study, healthy adult subjects; type: in vivo, human; details: 5 doses of 100 mg iv
# Description: Safety assessments included physical examinations, electrocardiograms (ECG), vital signs, standard clinical laboratory evaluations (blood chemistry, hematology), pregnancy testing, and adverse event (AE) and serious adverse event (SAE) monitoring.
# Any subject who received at least 1 dose of test article was included in the evaluation for safety. Safety was assessed by the following measures: Physical exams; AEs and SAEs; Vital signs; Laboratory assessments (Blood samples for hematology, chemistry, and coagulation (prothrombin time only)); ECG; and Pregnancy assessments.
# Subjects were analyzed according to the treatment actually received.
# [2] = test system: Community-Acquired Bacterial Pneumonia (CABP); assay: Phase 3 CABP study: Early Clinical Response (72-120 h after first dose); type: in vivo, human; details: ITT
# [3] = Absolute bioavailability of the tablet formulation (tosylate salt); details: phase 3 tablet formulation (tosylate salt), fasting conditions; listed as omadacycline
# [4] = test system: Community-Acquired Bacterial Pneumonia (CABP); assay: Phase 3 CABP study: Investigator's Assessment of Clinical Response at PTE; type: in vivo, human
# Moraxella catarrhalis = assay: Clinical success at PTE by baseline pathogen, microITT; type: in vivo, human; details: N1 = 4 (Compound 1), 1 (Moxifloxacin)
# [5] = Lung tissue versus plasma concentrations in mice; details: mouse
# [6] = Phase 1 multiple oral dose (300, 450, 600 mg) study: plasma PK, healthy adult subjects; details: for exposure (dose-normalized AUC0-24) as % of that predicted if perfectly dose-proportional: 300 mg to 600 mg; for AUC(0-t): human, in vivo, po
# [7] = CE-PTE, PORT Risk Class II as randomized
# [8] = CE-PTE, PORT Risk Class III as randomized
# [9] = CE-PTE, PORT Risk Class III/IV as randomized
# [10] = CE-PTE, PORT Risk Class IV as randomized
# [11] = CE-PTE, actual PORT Risk Class II
# [12] = CE-PTE, actual PORT Risk Class III
# [13] = CE-PTE, actual PORT Risk Class III/IV
# [14] = CE-PTE, actual PORT Risk Class IV
# [15] = ITT, PORT Risk Class II as randomized
# [16] = ITT, PORT Risk Class III as randomized
# [17] = ITT, PORT Risk Class III/IV as randomized
# [18] = ITT, PORT Risk Class IV as randomized
# [19] = ITT, actual PORT Risk Class III
# [20] = ITT, actual PORT Risk Class III/IV
structure (smiles),measurement,setting,value
"CN(C)c1cc(CNCC(C)(C)C)c(O)c2c1C[C@H]1C[C@H]3[C@H](N(C)C)C(O)=C(C(N)=O)C(=O)[C@@]3(O)C(O)=C1C2=O [Compound 1, 9-[(2,2-dimethyl-propylamino)-methyl]-minocycline]",Clinical Success n (%),Klebsiella pneumoniae,10 (76.9) n (%)
same,Treatment-emergent adverse events (TEAEs) reported,[1],29%
same,"changes in vital signs, laboratory or ECG parameters",[1],no clinically significant changes
same,discontinuations due to TEAEs,[1],no discontinuations due to TEAEs
same,most common TEAE: headache,[1],12%
same,severe or serious TEAEs,[1],no severe or serious TEAEs
same,"Difference (95% CI) in Early Clinical Success rate, Compound 1 minus moxifloxacin",[2],"−1.6% and −1.6 (−7.1, 3.8) %"
same,Early Clinical Response: Clinical Failure,[2]; 72-120 h after first infusion,49 (12.7) n (%)
same,Early Clinical Response: Clinical Failure or Indeterminate,[2]; 72-120 h after first infusion,73 (18.9) n (%)
same,Early Clinical Response: Clinical Success,[2]; 72-120 h after first infusion,313 (81.1) n (%)
same,Early Clinical Response: Indeterminate,[2]; 72-120 h after first infusion,24 (6.2) n (%)
same,absolute bioavailability,[3],35%
same,"Difference (95% CI) in Overall Clinical Success rate at PTE, Compound 1 minus moxifloxacin",[4]; CE-PTE,"2.5% and 2.5 (−1.7, 6.8) %"
same,Overall clinical response at PTE: Clinical Failure,[4]; CE-PTE,24 (7.1) n (%)
same,Overall clinical response at PTE: Clinical Success,[4]; CE-PTE,316 (92.9) n (%)
same,Clinical Failure at PTE,[4]; [7],3 (6.8) n (%)
same,Clinical Success at PTE,[4]; [7],41 (93.2) n (%)
same,Difference (95% CI) in clinical success at PTE,[4]; [7],"1.5 (−11.2, 13.9)^[4] %"
same,Clinical Failure at PTE,[4]; [8],14 (6.5) n (%)
same,Clinical Success at PTE,[4]; [8],202 (93.5) n (%)
same,Difference (95% CI) in clinical success at PTE,[4]; [8],"2.5 (−2.7, 7.8)^[4] %"
same,Clinical Failure at PTE,[4]; [9],21 (7.1) n (%)
same,Clinical Success at PTE,[4]; [9],275 (92.9) n (%)
same,Difference (95% CI) in clinical success at PTE,[4]; [9],"2.7 (−1.9, 7.3)^[4] %"
same,Clinical Failure at PTE,[4]; [10],7 (8.8) n (%)
same,Clinical Success at PTE,[4]; [10],73 (91.3) n (%)
same,Difference (95% CI) in clinical success at PTE,[4]; [10],"3.0 (−6.8, 12.8)^[4] %"
same,Clinical Failure at PTE,[4]; [11],2 (4.4) n (%)
same,Clinical Success at PTE,[4]; [11],43 (95.6) n (%)
same,Difference (95% CI) in clinical success at PTE,[4]; [11],"5.8 (−6.1, 18.1)^[4] %"
same,Clinical Failure at PTE,[4]; [12],13 (6.4) n (%)
same,Clinical Success at PTE,[4]; [12],191 (93.6) n (%)
same,Difference (95% CI) in clinical success at PTE,[4]; [12],"1.5 (−3.6, 6.9)^[4] %"
same,Clinical Failure at PTE,[4]; [13],22 (7.5) n (%)
same,Clinical Success at PTE,[4]; [13],273 (92.5) n (%)
same,Difference (95% CI) in clinical success at PTE,[4]; [13],"2.0% and 2.0 (−2.6, 6.6)^[4] %"
same,Clinical Failure at PTE,[4]; [14],9 (9.9) n (%)
same,Clinical Success at PTE,[4]; [14],82 (90.1) n (%)
same,Difference (95% CI) in clinical success at PTE,[4]; [14],"2.9 (−6.7, 12.5)^[4] %"
same,"Difference (95% CI) in Overall Clinical Success rate at PTE, Compound 1 minus moxifloxacin",[4]; ITT,"2.5% and 2.5 (−2.4, 7.4) %"
same,Overall clinical response at PTE: Clinical Failure,[4]; ITT,32 (8.3) n (%)
same,Overall clinical response at PTE: Clinical Failure or Indeterminate,[4]; ITT,48 (12.4) n (%)
same,Overall clinical response at PTE: Clinical Success,[4]; ITT,338 (87.6) n (%)
same,Overall clinical response at PTE: Indeterminate,[4]; ITT,16 (4.1) n (%)
same,Clinical Failure at PTE,[4]; [15],6 (10.7) n (%)
same,Clinical Failure or Indeterminate at PTE,[4]; [15],11 (19.6) n (%)
same,Clinical Success at PTE,[4]; [15],45 (80.4) n (%)
same,Difference (95% CI) in clinical success at PTE,[4]; [15],"−3.6 (−18.2, 11.0)^[4] %"
same,Indeterminate at PTE,[4]; [15],5 (8.9) n (%)
same,Clinical Failure at PTE,[4]; [16],17 (7.1) n (%)
same,Clinical Failure or Indeterminate at PTE,[4]; [16],24 (10.0) n (%)
same,Clinical Success at PTE,[4]; [16],217 (90.0) n (%)
same,Difference (95% CI) in clinical success at PTE,[4]; [16],"3.4 (−2.4, 9.4)^[4] %"
same,Indeterminate at PTE,[4]; [16],7 (2.9) n (%)
same,Clinical Failure at PTE,[4]; [17],26 (7.9) n (%)
same,Clinical Failure or Indeterminate at PTE,[4]; [17],37 (11.2) n (%)
same,Clinical Success at PTE,[4]; [17],293 (88.8) n (%)
same,Difference (95% CI) in clinical success at PTE,[4]; [17],"3.5 (−1.6, 8.7)^[4] %"
same,Indeterminate at PTE,[4]; [17],11 (3.3) n (%)
same,Clinical Failure at PTE,[4]; [18],9 (10.1) n (%)
same,Clinical Failure or Indeterminate at PTE,[4]; [18],13 (14.6) n (%)
same,Clinical Success at PTE,[4]; [18],76 (85.4) n (%)
same,Difference (95% CI) in clinical success at PTE,[4]; [18],"3.4 (−7.5, 14.0)^[4] %"
same,Indeterminate at PTE,[4]; [18],4 (4.5) n (%)
same,Clinical Failure at PTE,"[4]; ITT, actual PORT Risk Class II",5 (8.8) n (%)
same,Clinical Failure or Indeterminate at PTE,"[4]; ITT, actual PORT Risk Class II",10 (17.5) n (%)
same,Clinical Success at PTE,"[4]; ITT, actual PORT Risk Class II",47 (82.5) n (%)
same,Difference (95% CI) in clinical success at PTE,"[4]; ITT, actual PORT Risk Class II","−1.5 (−15.7, 12.8)^[4] %"
same,Indeterminate at PTE,"[4]; ITT, actual PORT Risk Class II",5 (8.8) n (%)
same,Clinical Failure at PTE,[4]; [19],16 (7.0) n (%)
same,Clinical Failure or Indeterminate at PTE,[4]; [19],21 (9.3) n (%)
same,Clinical Success at PTE,[4]; [19],206 (90.7) n (%)
same,Difference (95% CI) in clinical success at PTE,[4]; [19],"2.8 (−3.0, 8.7)^[4] %"
same,Indeterminate at PTE,[4]; [19],5 (2.2) n (%)
same,Clinical Failure at PTE,[4]; [20],27 (8.2) n (%)
same,Clinical Failure or Indeterminate at PTE,[4]; [20],38 (11.6) n (%)
same,Clinical Success at PTE,[4]; [20],291 (88.4) n (%)
same,Difference (95% CI) in clinical success at PTE,[4]; [20],"3.3% and 3.3 (−1.9, 8.5)^[4] %"
same,Indeterminate at PTE,[4]; [20],11 (3.3) n (%)
same,Clinical Failure at PTE,"[4]; ITT, actual PORT Risk Class IV",11 (10.8) n (%)
same,Clinical Failure or Indeterminate at PTE,"[4]; ITT, actual PORT Risk Class IV",17 (16.7) n (%)
same,Clinical Success at PTE,"[4]; ITT, actual PORT Risk Class IV",85 (83.3) n (%)
same,Indeterminate at PTE,"[4]; ITT, actual PORT Risk Class IV",6 (5.9) n (%)
same,Clinical Success n (%),Moraxella catarrhalis,4 (100.0) n (%)
same,Kp,[5],3.7 to 4.4
same,exposure (dose-normalized AUC0-24) as % of that predicted if perfectly dose-proportional,[6]; Day 1,76%
same,exposure (dose-normalized AUC0-24) as % of that predicted if perfectly dose-proportional,[6]; Day 5,88%
same,Cmax/Dose Geometric LS Means,"[6]; Day 1, 300 mg",2.09 ng/mL/mg
same,Cmax/Dose Geometric LS Means,"[6]; Day 1, 450 mg",1.81 ng/mL/mg
same,Cmax/Dose Geometric LS Means,"[6]; Day 1, 600 mg",1.54 ng/mL/mg
same,Cmax/Dose Geometric LS Means,"[6]; Day 5, 300 mg",2.62 ng/mL/mg
same,Cmax/Dose Geometric LS Means,"[6]; Day 5, 450 mg",2.32 ng/mL/mg
same,Cmax/Dose Geometric LS Means,"[6]; Day 5, 600 mg",2.11 ng/mL/mg
same,systemic exposure on Day 5 higher than on Day 1,[6]; all tested dose levels,~50%
same,AUC(0-t),[6]; 300 mg,9270 ng·h/mL
same,AUC(0-t),[6]; 450 mg,8980 ng·h/mL
